Data on seven compounds can be found in US12600940B2, “Strains and processes for single cell protein or biomass production” (priority 2019, dated 2026).

≈ marks a conversion by molar mass, not a printed value.

The test system of experiment [1] is VTT-E-193585 strain. The experiment can be described thus: Antibiotic susceptibility (MIC), CLSI M07 broth microdilution / agar dilution. Type of experiment: cell-based, Xanthobacter sp. The following applies: VTT-E-193585, 48 h ± 1 h, aerobic, +35±2° C., cation-adjusted Mueller Hinton Broth, fosfomycin by agar dilution; for MIC: read-out: Minimum Inhibitory Concentration (MIC). (In general: Dilution methods test growth across graded concentrations, often in twofold steps.)

The test system of experiment [2] is Escherichia coli ATCC 25922. Description: Antibiotic susceptibility (MIC), quality control strain. Type of experiment: cell-based. The following applies: E. coli ATCC 25922, 18 h ± 2 h, aerobic, +35±2° C.; for MIC: Escherichia coli, ATCC25922, read-out: Minimum Inhibitory Concentration (MIC). The protocol:
(§1) Escherichia coli ATCC 25922 was used as quality control strain and it was incubated in aerobic conditions, at +35±2° C. for 18±2 hours.

The subject of experiment [3] is VTT-E-193585 strain. The experiment can be described thus: Antibiotic susceptibility (MIC), CLSI M07 broth microdilution / agar dilution. Type of experiment: cell-based, Xanthobacter sp. To be noted: comparison of MIC values of Table 5. The protocol:
as §1

Regarding `NC[C@H]1O[C@H](O[C@H]2[C@H](O)[C@@H](O[C@H]3O[C@H](CO)[C@@H](O)[C@H](N)[C@H]3O)[C@H](N)C[C@@H]2N)[C@H](O)[C@@H](O)[C@@H]1O` [Kanamycin, kanamycin], the MIC came out at 2 µg/mL (≈ 4.13 µM) in the experiment on VTT-E-193585 strain [1] and 4 µg/mL (≈ 8.26 µM) in experiment [2].
The matching figures for `CN(C)[C@@H]1C(O)=C(C(N)=O)C(=O)[C@@]2(O)C(O)=C3C(=O)c4c(O)cccc4[C@@](C)(O)[C@H]3C[C@@H]12` [Tetracycline, tetracycline]: 0.25 µg/mL (≈ 0.563 µM) and 1 µg/mL (≈ 2.25 µM).
Regarding gentamicin, the “Minimum Inhibitory Concentration (MIC)” value (with VTT-E-193585 strain [1]; in experiment [2]) was 0.5 µg/mL each time. The “MIC for VTT-E-193585 compared with E. coli ATCC 25922” value against VTT-E-193585 strain [3] is reported as “lower or comparable”.
Consider colistin, for which the results for the “Minimum Inhibitory Concentration (MIC)” value (in the experiment with VTT-E-193585 strain [1]; in experiment [2]) were 4 µg/mL and 2 µg/mL, respectively. In the experiment on VTT-E-193585 strain [3], the “MIC for VTT-E-193585 compared with E. coli ATCC 25922” value is recorded as “higher”.
Consider `CC1(C)S[C@@H]2[C@H](NC(=O)[C@H](N)c3ccccc3)C(=O)N2[C@H]1C(=O)O` [Ampicillin, ampicillin], for which the MIC is 16 µg/mL (≈ 45.8 µM) with VTT-E-193585 strain [1] and 8 µg/mL (≈ 22.9 µM) in experiment [2]. Besides, the “MIC for VTT-E-193585 compared with E. coli ATCC 25922” value in the experiment on VTT-E-193585 strain [3] is “higher”.
The matching figures for `[H]/N=C(/N)N[C@H]1[C@H](O)[C@@H](O)[C@H](O[C@@H]2O[C@@H](C)[C@](O)(C=O)[C@H]2O[C@@H]2O[C@@H](CO)[C@H](O)[C@@H](O)[C@@H]2NC)[C@@H](N/C(N)=N\[H])[C@@H]1O` [Streptomycin, streptomycin]: 0.5 µg/mL (≈ 0.86 µM), 4 µg/mL (≈ 6.88 µM) and “lower or comparable”.
Take `C[C@@H]1O[C@@H]1P(=O)(O)O` [Fosfomycin, fosfomycin]: the MIC in the experiment with VTT-E-193585 strain [1] was 32 µg/mL (≈ 232 µM); in experiment [2], 0.5 µg/mL (≈ 3.62 µM). For the same compound, the “MIC for VTT-E-193585 compared with E. coli ATCC 25922” value in the experiment with VTT-E-193585 strain [3] was “higher”.
